Several values for one entry are separate records, joined by “and”; a condition that tells them apart may be missing. Equal values may be shown once. Read-outs that look alike come from different tables or passages of the source.
Columns and labels:
[1] = system: vaccinia virus (modified vaccinia virus Ankara; MVA); assay: microbe, parasite or virus in culture; assay type: cell-based
in vitro [2] = conditions: hamster
[3] = system: Vaccinia virus (MVA strain); assay type: cell-based
in vitro [4] = conditions: hamster, BHK-21 cells, no virus, 2 days
[5] = CC50, Average of Tests 1-2 (Table 1)
[6] = CC50, Average, Tests 1-3 (Table 1A)
[7] = CC50, Test 2, uninfected BHK-21 cells, 3 days
[8] = CC50, Test 3, uninfected BHK-21 cells, 3 days

SMILES	EC50 [1]	EC50 ([1]; Orthopoxvirus vaccinia) [µM]	CC50 (in vitro [2]; [5]) [µM]	CC50 (in vitro [2]; [6]) [µM]	CC50 (in vitro [2]; CC50, Test 1, uninfected BHK-21 cells, 3 days) [µM]	CC50 (in vitro [2]; [7]) [µM]	CC50 (in vitro [2]; [8]) [µM]	EC50 ([3]; read-out: Average EC50 ± SD) [µM]	EC50 ([3]; read-out: EC50) [µM]	CC50 (in vitro [4]; CC50, n=3) [µM]	CC50 (in vitro [4]; CC50 ± SD, n=4) [µM]
Nc1ccn(C[C@@H](CO)OCP(=O)(O)O)c(=O)n1 [Cidofovir]	2.6 µM and 7.2 µM	4.9	> 100	> 73	> 100	> 100	73				
CCC(CC)COC(=O)[C@H](C)N[P@](=O)(OC[C@H]1O[C@@](C#N)(c2ccc3c(N)ncnn23)[C@H](O)[C@@H]1O)Oc1ccccc1 [Compound of Formula Ia, (S)-2-ethylbutyl 2-(((S)-(((2R,3S,4R,5R)-5-(4-aminopyrrolo[2,1-f][1,2,4]triazin-7-yl)-5-cyano-3,4-dihydroxytetrahydrofuran-2-yl)methoxy)(phenoxy)phosphoryl)amino)propanoate]	2.3 µM and 0.55 µM	1.43	12.8	> 2.5		2.5	> 50	0.773 ± 0.131	0.726	26.1	28.8 ± 11.5

— patent publication US20240207291A1, “METHODS FOR TREATING POXVIRUS INFECTIONS” (priority 2022, published 2024)
